Legend:
CDK2/Cyclin E = target: T1, CDK2/Cyclin E (Homo sapiens, UniProt P24941); test: CDK2/Cyclin E enzymatic phosphorylation assay (Caliper mobility shift); format: biochemical; settings: read-out: Enzyme CDK2/cyclin E IC50; further: 1.0 mM ATP or ATP Km
T1 construct: purchased Eurofins 14-475
Description: (§1) Reactions proceeded until between 10% to 20% total peptides were phosphorylated at room temperature (25° C.) and were terminated with 35 mM 2,2′,2″,2′″-(ethane-1,2-diyldinitrilo)tetraacetic acid (EDTA). Product was detected using the Caliper mobility shift detection method where the phosphorylated peptide (product) and substrate were electrophoretically separated and measured. Percent activity was plotted against log concentration of compound and points to generate an apparent IC50.

CDK1/Cyclin B1 = target: T2, CDK1/Cyclin B1 (Homo sapiens, UniProt P06493); test: CDK1/Cyclin B1 enzymatic phosphorylation assay (Caliper mobility shift); format: biochemical; settings: read-out: Enzyme CDK1/cyclin B1 IC50
T2 construct: GST; purchased BPS 40454
T2 sequence (P06493 whole entry): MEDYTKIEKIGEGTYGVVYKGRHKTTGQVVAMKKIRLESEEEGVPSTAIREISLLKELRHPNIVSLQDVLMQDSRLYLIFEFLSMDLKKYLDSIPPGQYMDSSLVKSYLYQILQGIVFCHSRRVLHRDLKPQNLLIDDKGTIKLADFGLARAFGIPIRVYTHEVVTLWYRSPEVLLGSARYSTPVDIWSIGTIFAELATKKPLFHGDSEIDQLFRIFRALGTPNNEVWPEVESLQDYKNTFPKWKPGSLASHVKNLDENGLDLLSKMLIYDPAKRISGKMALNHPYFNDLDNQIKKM
T2 sequence (P14635 whole entry partner): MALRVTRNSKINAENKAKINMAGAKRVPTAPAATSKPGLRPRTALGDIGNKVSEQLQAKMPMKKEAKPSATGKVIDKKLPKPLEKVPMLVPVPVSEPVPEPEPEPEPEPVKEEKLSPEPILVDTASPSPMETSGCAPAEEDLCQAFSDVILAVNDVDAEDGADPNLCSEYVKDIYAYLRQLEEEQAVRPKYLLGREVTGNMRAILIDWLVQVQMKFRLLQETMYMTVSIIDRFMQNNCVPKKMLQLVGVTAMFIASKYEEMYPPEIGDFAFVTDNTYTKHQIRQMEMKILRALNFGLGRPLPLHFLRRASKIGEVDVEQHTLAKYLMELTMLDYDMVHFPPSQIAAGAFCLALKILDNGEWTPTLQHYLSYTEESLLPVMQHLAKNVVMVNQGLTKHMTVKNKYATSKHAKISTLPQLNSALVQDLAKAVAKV
Description: as §1

SMILES: CC(C)c1cc(Nc2cnc3cnn(CCCO)c3n2)n[nH]1 [Example 1, 3-(6-((5-isopropyl-1H-pyrazol-3-yl)amino)-1H-pyrazolo[3,4-b]pyrazin-1-yl)propan-1-ol]
- IC50 (CDK2/Cyclin E): 0.0215 µM
- IC50 (CDK1/Cyclin B1): 2.99 µM

— patent US20260217717A1, “CDK2 INHIBITORS” (BLUEPRINT MEDICINES CORPORATION, priority 2023, published 2026)
